Measured values published in article PMC7177633, “Effective Cellular Transport of Ortho-Halogenated Sulfonamide Derivatives of Metformin Is Related to Improved Antiproliferative Activity and Apoptosis Induction in MCF-7 Cells” (International Journal of Molecular Sciences, 2020).
Like-named read-outs stand apart in the source and are kept apart here.

Assays:
MCF-7 cells = assay: Cellular uptake of metformin sulfonamides in MCF-7 cells (HPLC); format: in vitro ADME, human; conditions: for uptake into MCF-7 cells / uptake in MCF-7 cells relative to metformin: 800 μmol/L; for uptake into MCF-7 cells: 10 min incubation, 37 °C; for uptake in MCF-7 cells relative to metformin: fold higher than parent drug metformin
Outline: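 MCF-7 or MDA-MB-231 cells exposed to 10−3000 μmol/L compound in HBSS at 37 °C for 10 min, washed with ice-cold HBSS, then lysed in 0.1 M NaOH. Intracellular compound quantified by reversed-phase HPLC-UV at 235 nm against standards spiked on cell layers. Protein by Bradford; quadruplicates.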

MDA-MB-231 cells = assay: Cell viability WST-1 assay, MDA-MB-231; format: cell-based; conditions: Homo sapiens, WST-1, 24 h; for viability at 3000 µM: MDA-MB-231, 24 h, 3000 µmol/L, read-out: percentage of viability of MDA-MB-231 cells
Outline: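 Cells seeded 1 × 10^4/well, grown 24 h, then treated with compounds for 24 h at 37 °C. WST-1 reagent added for 1.5 h, absorbance at 450 nm, normalised to medium-only control (n = 8). IC50 from nonlinear log(concentration)-response fit.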

OCTs = assay: Inhibition of [14C]choline uptake in MDA-MB-231 cells (competitive inhibition assay); format: cell-based, human; conditions: mean ± SD (n = 3)
Outline: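 [14C]choline uptake was measured in MDA-MB-231 or MCF-7 monolayers in HBSS with 25 mM HEPES, pH 7.4. After ice-cold washes the cells were lysed in 0.1 M NaOH and radioactivity was counted by liquid scintillation, with at least three replicates per passage.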

[1] = Eadie-Hofstee analysis, transporter I
[2] = Eadie-Hofstee analysis, transporter I, read-out: Km, transporter I, MCF-7
[3] = Eadie-Hofstee analysis, transporter II
[4] = Eadie-Hofstee analysis, transporter II, read-out: Km, transporter II, MCF-7
[5] = Michaelis-Menten curve, read-out: Km MCF-7 (Michaelis Menten curves)

| IC50 (OCTs) [mM] | uptake into MCF-7 cells (MCF-7 cells) [nmol/min/mg protein] | uptake in MCF-7 cells relative to metformin (MCF-7 cells) | IC50 (MDA-MB-231 cells; MDA-MB-231, mean ± SD (n = 6–8), read-out: IC50 inhibition of MDA-MB-231 cells' viability) [mM] | SMILES | Vmax, transporter I, MCF-7 (MCF-7 cells; [1]) [nmol/min/mg] | Km (MCF-7 cells; [2]) [mM] | Vmax, transporter II, MCF-7 (MCF-7 cells; [3]) [nmol/min/mg] | Km (MCF-7 cells; [4]) [mM] | Vmax MCF-7 (Michaelis Menten curves) (MCF-7 cells; Michaelis-Menten curve) [nmol/min/mg] | Km (MCF-7 cells; [5]) [mM] | viability at 3000 µM (MDA-MB-231 cells) [%] |
| --- | --- | --- | --- | --- | --- | --- | --- | --- | --- | --- | --- |
| 0.92 ± 0.013 |  |  |  | CN(C)C(=N)N=C(N)NS(=O)(=O)c1ccccc1Br [Compound 4] | 0.031 ± 0.002 | 1.54 ± 0.22 | 0.153 ± 0.022 | 8.37 ± 1.43 | 0.049 ± 0.02 | 2.47 ± 0.652 | ~56.4 |
| 5.149 ± 0.022 | 1.592 ± 0.943 | approximately 14 fold | 2.59 ± 0.15 | CN(C)C(=N)N=C(N)NS(=O)(=O)c1ccccc1F [Compound 7] | 5.303 ± 1.334 | 2.13 ± 0.815 | 22.43 ± 12.78 | 6.14 ± 4.6 | 23.92 ± 7.20 | 10.8 ± 5.13 |  |
| 2.135 ± 0.014 | 1.79 ± 0.79 | approximately 14 fold |  | CN(C)C(=N)N=C(N)NS(=O)(=O)c1ccccc1Cl [Compound 1] | 18.53 ± 2.41 | 6.72 ± 0.982 | 62.84 ± 21.37 | 21.1 ± 7.73 |  |  | ~60 |
